Data: ChEMBL document CHEMBL5506059, “Cyanomethylquinolones as a New Class of Potential Multitargeting Broad-Spectrum Antibacterial Agents” (J Med Chem, 2024)
Values after ≈ are worked out from the molar mass of the structure shown. Active and inactive are the calls of the source. The rule behind the calls is not given here.

Legend:
[1] = Hemolytic activity in human Red blood cells at 256 ug/ml measured after 1.5 hrs by absorbance based assay relative to control; format: toxicity, cell-based, Erythrocyte; settings: red blood cells (erythrocytes), at 256 µg/mL, read-out: Activity
[2] = tested on: Enterococcus faecalis; assay: Potency index, ratio of norfloxacin MIC to test compound MIC for antibacterial activity against vancomycin-resistant Enterococcus faecalis clinical isolate p1-2007225053 assessed as inhibition of bacterial growth incubated for 24 hrs; format: functional
[3] = tested on: Cell membrane; assay: Induction of cell membrane depolarization in methicillin-resistant Staphylococcus aureus assessed as increase in fluorescence intensity at 1 ug/ml measured for 30 mins by DiSC35 dye based fluorescence analysis; format: cell membranes; settings: dose 1.0 µg/ml
[4] = tested on: Streptococcus pyogenes; assay: Potency index, ratio of ciprofloxacin MIC to test compound MIC for antibacterial activity against Streptococcus pyogenes ATCC 19615 assessed as inhibition of bacterial growth incubated for 24 hrs; format: functional
[5] = tested on: Pseudomonas aeruginosa; assay: Antibiofilm activity in Pseudomonas aeruginosa assessed as biofilm eradication measured after 24 hrs by crystal violet staining based analysis; format: functional, organism-based; settings: dose 1-2 µg/ml
[6] = tested on: Staphylococcus aureus; assay: Antibacterial activity against Staphylococcus aureus ATCC 12600 assessed as inhibition of bacterial growth incubated for 24 hrs; format: functional
[7] = tested on: Staphylococcus aureus; assay: Antibacterial activity against Staphylococcus aureus CMCC(B)26001 assessed as inhibition of bacterial growth incubated for 24 hrs; format: functional
[8] = tested on: Pseudomonas aeruginosa; assay: Induction of morphological changes in Pseudomonas aeruginosa assessed as appearance of wrinkled bacterial surface at 2 ug/ml incubated for 3 hrs by SEM analysis; format: functional, organism-based; settings: dose 2.0 µg/ml
[9] = tested on: Cell membrane; assay: Induction of cell membrane permeability in methicillin-resistant Staphylococcus aureus assessed as increase in fluorescence intensity at 1 to 2 ug/ml incubated for 6 hrs by PI staining based fluorescence analysis; format: cell membranes; settings: dose 1-2 µg/ml
[10] = tested on: Staphylococcus aureus; assay: Potency index, ratio of clinafloxacin MIC to test compound MIC for antibacterial activity against Staphylococcus aureus clinical isolate assessed as inhibition of bacterial growth incubated for 24 hrs; format: functional
[11] = tested on: Staphylococcus aureus; assay: Antibacterial activity against Staphylococcus aureus clinical isolate assessed as inhibition of bacterial growth incubated for 24 hrs; format: functional
[12] = tested on: Staphylococcus aureus; assay: Potency index, ratio of norfloxacin MIC to test compound MIC for antibacterial activity against Staphylococcus aureus clinical isolate assessed as inhibition of bacterial growth incubated for 24 hrs; format: functional
[13] = tested on: Staphylococcus aureus; assay: Antibacterial activity against methicillin resistant Staphylococcus aureus assessed as reduction in metabolic activity by measuring reduction in fluorescence intensity at 0.5 to 2 times MIC incubated for 6 hrs by alamar blue assay; format: functional, organism-based
[14] = tested on: Streptococcus pyogenes; assay: Antibacterial activity against Streptococcus pyogenes ATCC 19615 assessed as inhibition of bacterial growth incubated for 24 hrs; format: functional
[15] = tested on: Pseudomonas aeruginosa; assay: Induction of intracellular ROS generation in Pseudomonas aeruginosa assessed as increase in fluorescence intensity at 2 ug/ml incubated for 6 hrs in presence of N-acetyl-L-cysteine by DCFH-DA dye based fluorescence analysis; format: functional, organism-based; settings: dose 2.0 µg/ml
[16] = tested on: L02; assay: Cytotoxicity against human L02 cells assessed as reduction in cell viability at 0.78 to 25 ug/ml measured after 24 hrs by MTT assay; format: toxicity, cell-based; settings: l02, 24 h, dose 0.78-25 µg/ml
[17] = tested on: Staphylococcus aureus; assay: Antibacterial activity against methicillin resistant Staphylococcus aureus infected in female ICR mouse assessed as log reduction in bacterial load at 10 mg/kg pre-infected with bacteria for 24 hrs followed by compound administration on wound site every 6 hrs for 2 times and measured 36 hrs post infection; format: functional; settings: time 12 hrs
[18] = tested on: Enterococcus faecalis; assay: Antibacterial activity against Enterococcus faecalis clinical isolate assessed as inhibition of bacterial growth incubated for 24 hrs; format: functional
[19] = tested on: Staphylococcus aureus; assay: Antibacterial activity against methicillin resistant Staphylococcus aureus clinical isolate assessed as inhibition of bacterial growth incubated for 24 hrs; format: functional
[20] = tested on: Enterococcus faecalis; assay: Antibacterial activity against vancomycin-resistant Enterococcus faecalis clinical isolate p1-2007225053 assessed as inhibition of bacterial growth incubated for 24 hrs; format: functional
[21] = tested on: Staphylococcus aureus; assay: Antibiofilm activity in methicillin resistant Staphylococcus aureus assessed as biofilm eradication measured after 24 hrs by crystal violet staining based analysis; format: functional, organism-based; settings: dose 1-2 µg/ml
[22] = tested on: Escherichia coli; assay: Antibacterial activity against Escherichia coli ATCC 25922 assessed as inhibition of bacterial growth incubated for 24 hrs; format: functional
[23] = tested on: Cell membrane; assay: Induction of cell membrane permeability in Pseudomonas aeruginosa assessed as increase in fluorescence intensity at 1 to 2 ug/ml incubated for 6 hrs by PI staining based fluorescence analysis; format: cell membranes; settings: dose 1-2 µg/ml
[24] = tested on: Pseudomonas aeruginosa; assay: Potency index, ratio of norfloxacin MIC to test compound MIC for antibacterial activity against Pseudomonas aeruginosa clinical isolate assessed as inhibition of bacterial growth incubated for 24 hrs; format: functional
[25] = tested on: HUVEC; assay: Cytotoxicity against HUVEC cells assessed as reduction in cell viability at 0.78 to 25 ug/ml measured after 24 hrs by MTT assay; format: toxicity, cell-based; settings: human, dose 0.78-25 µg/ml
[26] = tested on: Staphylococcus aureus; assay: Antibacterial activity against ciprofloxacin-treated Staphylococcus aureus ATCC 6538 assessed as inhibition of bacterial growth measured after 24 hrs; format: functional
[27] = tested on: Cell membrane; assay: Induction of cell membrane damage in Pseudomonas aeruginosa assessed as increase in nucleic acid leakage at 0 to 2 ug/ml incubated for 12 hrs by optical density based microplate reader analysis; format: cell membranes; settings: dose 0-2 µg/ml
[28] = tested on: Streptococcus pneumoniae; assay: Antibacterial activity against Streptococcus pneumoniae ATCC 6305 assessed as inhibition of bacterial growth incubated for 24 hrs; format: functional
[29] = tested on: Pseudomonas aeruginosa; assay: Induction of morphological changes in Pseudomonas aeruginosa assessed as appearance of concaved bacterial surface at 2 ug/ml incubated for 3 hrs by SEM analysis; format: functional, organism-based; settings: dose 2.0 µg/ml
[30] = tested on: Pseudomonas aeruginosa; assay: Antibacterial activity against Pseudomonas aeruginosa ATCC 27853 assessed as inhibition of bacterial growth incubated for 24 hrs; format: functional
[31] = tested on: Pseudomonas aeruginosa; assay: Induction of intracellular ROS generation in Pseudomonas aeruginosa assessed as increase in fluorescence intensity at 2 ug/ml incubated for 6 hrs by DCFH-DA dye based fluorescence analysis; format: functional, organism-based; settings: dose 2.0 µg/ml
[32] = tested on: Staphylococcus aureus; assay: Antibacterial activity against Staphylococcus aureus ATCC 29213 assessed as inhibition of bacterial growth incubated for 24 hrs; format: functional
[33] = tested on: Staphylococcus aureus; assay: Potency index, ratio of ciprofloxacin MIC to test compound MIC for antibacterial activity against Staphylococcus aureus clinical isolate assessed as inhibition of bacterial growth incubated for 24 hrs; format: functional
[34] = tested on: Staphylococcus epidermidis; assay: Antibacterial activity against Staphylococcus epidermidis ATCC 12228 assessed as inhibition of bacterial growth incubated for 24 hrs; format: functional
[35] = tested on: Pseudomonas aeruginosa; assay: Antibacterial activity against Pseudomonas aeruginosa assessed as reduction in metabolic activity by measuring reduction in fluorescence intensity at 0.5 to 2 times MIC incubated for 6 hrs by alamar blue assay; format: functional, organism-based
[36] = tested on: Escherichia coli; assay: Antibacterial activity against Escherichia coli clinical isolate assessed as inhibition of bacterial growth incubated for 24 hrs; format: functional
[37] = tested on: Enterococcus faecalis; assay: Antibacterial activity against vancomycin-resistant Enterococcus faecalis clinical isolate p1-2007226001 assessed as inhibition of bacterial growth incubated for 24 hrs; format: functional
[38] = tested on: Enterococcus faecium; assay: Antibacterial activity against Enterococcus faecium ATCC 19434 assessed as inhibition of bacterial growth incubated for 24 hrs; format: functional
[39] = tested on: Pseudomonas aeruginosa; assay: Antibacterial activity against Pseudomonas aeruginosa clinical isolate assessed as inhibition of bacterial growth incubated for 24 hrs; format: functional
[40] = tested on: Pseudomonas aeruginosa; assay: Induction of morphological changes in Pseudomonas aeruginosa assessed as appearance of blurred intracellular boundaries with disintegration of bacterial structure at 2 ug/ml incubated for 3 hrs by SEM analysis; format: functional, organism-based; settings: dose 2.0 µg/ml

For `N#CCc1cc2c(cc1F)c(=O)c(C(=O)O)cn2C1CC1`, the hemolysis at 1.5 h, 256 ug/ml [1] was under 1%, the Ratio [2] was 8 and the Activity [3] was “Active”. The Ratio [4] was 64, the Activity [5] was “Dose-Dependent Effect” and the MIC [6] was 1 µg/mL (≈ 3.49 µM). The MIC [7] was 0.125 µg/mL (≈ 0.437 µM), the Activity [8] was “Active” and the Activity [9] was “Active”. For the same compound, the Ratio [10] was 2, the MIC [11] was 0.25 µg/mL (≈ 0.873 µM) and the Ratio [12] was 32. For the same compound, the Activity [13] was “Active”, the MIC [14] was 0.25 µg/mL (≈ 0.873 µM) and the Activity [15] was “inactive”. The Activity [16] was “Non-Toxic”, the “log(activity)” value [17] was about 2.5 and the MIC [18] was 4 µg/mL (≈ 14 µM). The MIC [19] was 0.5 µg/mL (≈ 1.75 µM), the MIC [20] was 0.125 µg/mL (≈ 0.437 µM) and the Activity [21] was “Dose-Dependent Effect”. The MIC [22] was 0.5 µg/mL (≈ 1.75 µM), the Activity [23] was “Active” and the Ratio [24] was 32. The Activity [25] was “Non-Toxic”, the MIC [26] was 8 µg/mL (≈ 27.9 µM) and the Activity [27] was “Active”. The MIC [28] was 0.5 µg/mL (≈ 1.75 µM), the Activity [29] was “Active” and the MIC [30] was 0.5 µg/mL (≈ 1.75 µM). The Activity [31] was “Active”, the MIC [32] was 1 µg/mL (≈ 3.49 µM) and the Ratio [33] was 8. The MIC [34] was 0.5 µg/mL (≈ 1.75 µM), the Activity [35] was “Active” and the MIC [36] was 2 µg/mL (≈ 6.99 µM). It also gave an MIC [37] of 4 µg/mL (≈ 14 µM), an MIC [38] of 2 µg/mL (≈ 6.99 µM) and an MIC [39] of 0.25 µg/mL (≈ 0.873 µM). The Activity [40] was “Active”.
